Source: patent US10392348B2, “2-oxo-3,4-dihydroquinoline compounds as plant growth regulators” (Syngenta Participations AG, priority 2015, dated 2019)
Read-outs that look alike come from different tables or passages of the source.

How the values were obtained:
[1] = test system: soybean plants (variety S20-G7); assay: Reduced plant water use in soybean (foliar spray, repeated weighing of pots); format: in vivo; conditions: vs negative control; for change in vivo at 500 µM / change in vivo at 31.25 µM / change in vivo at 125 µM: Glycine max, foliar; for % WU 0 DAA AM*: 0 DAA a.m.
Summary of the method: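 Daytime water use was tracked by weighing pots of 12-day-old soybean after foliar spray of compound formulated as EC plus EXTRAVON 1 g/20 L. Cumulative total (0-2.5 DAA) sums a.m. and p.m. readings; values baseline-adjusted by covariance analysis against formulation-only negative control.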

[2] = 0 h, Table B1, sprayed at 500 μM, 0 DAA a.m. (10:30-12:50), read-out: % WU 0 DAA AM
[3] = 24 h, Table B1, sprayed at 500 μM, 1 DAA a.m. (7:30-12:50), read-out: % WU 1DAA AM
[4] = 24 h, Table B1, sprayed at 500 μM, 1 DAA p.m. (14:00-19:50), read-out: % WU 1DAA PM
[5] = 24 h, Table B2, rate 31.25 uM, 1 DAA a.m., read-out: % WU 1DAA AM
[6] = 24 h, Table B2, rate 31.25 uM, 1 DAA p.m., read-out: % WU 1DAA PM
[7] = 24 h, Table B2, rate 125 uM, 1 DAA a.m., read-out: % WU 1DAA AM
[8] = 24 h, Table B2, rate 125 uM, 1 DAA p.m., read-out: % WU 1DAA PM
[9] = 24 h, Table B2, rate 500 uM, 1 DAA a.m., read-out: % WU 1DAA AM
[10] = 24 h, Table B2, rate 500 uM, 1 DAA p.m., read-out: % WU 1DAA PM
[11] = 48 h, Table B1, sprayed at 500 μM, 2 DAA a.m. (07:30-12:50), read-out: % WU 2 DAA AM
[12] = 48 h, Table B1, sprayed at 500 μM, 2 DAA p.m. (14:00-19:50), read-out: % WU 2 DAA PM
[13] = 48 h, Table B2, rate 31.25 uM, 2 DAA a.m., read-out: % WU 2 DAA AM
[14] = 48 h, Table B2, rate 31.25 uM, 2 DAA p.m., read-out: % WU 2 DAA PM
[15] = 48 h, Table B2, rate 125 uM, 2 DAA a.m., read-out: % WU 2 DAA AM
[16] = 48 h, Table B2, rate 125 uM, 2 DAA p.m., read-out: % WU 2 DAA PM
[17] = 48 h, Table B2, rate 500 uM, 2 DAA a.m., read-out: % WU 2 DAA AM
[18] = 48 h, Table B2, rate 500 uM, 2 DAA p.m., read-out: % WU 2 DAA PM
[19] = 60 h, Table B1, sprayed at 500 μM, cumulative total WU (0-2.5 DAA), read-out: % WU Total 0 to 2.5 DAA
[20] = 60 h, Table B2, rate 31.25 uM, cumulative total WU (0-2.5 DAA), read-out: % WU Total 0 to 2.5 DAA
[21] = 60 h, Table B2, rate 125 uM, cumulative total WU (0-2.5 DAA), read-out: % WU Total 0 to 2.5 DAA
[22] = 60 h, Table B2, rate 500 uM, cumulative total WU (0-2.5 DAA), read-out: % WU Total 0 to 2.5 DAA

## CCN1C(=O)CCc2cc(CNS(=O)(=O)c3ccccc3)ccc21 [Compound 2.001, N-[(1-ethyl-2-oxo-3,4-dihydroquinolin-6-yl)methyl]benzenesulfonamide]
[1]; [2]
  change in vivo at 500 µM: -35.3%
[1]; [3]
  change in vivo at 500 µM: -29.1%
[1]; [4]
  change in vivo at 500 µM: -28.1%
[1]; [5]
  change in vivo at 31.25 µM: -1.8%
[1]; [6]
  change in vivo at 31.25 µM: -0.9%
[1]; [7]
  change in vivo at 125 µM: -10.1%
[1]; [8]
  change in vivo at 125 µM: -10.9%
[1]; [9]
  change in vivo at 500 µM: -36.3%
[1]; [10]
  change in vivo at 500 µM: -33.2%
[1]; [11]
  change in vivo at 500 µM: -19.6%
[1]; [12]
  change in vivo at 500 µM: -14.3%
[1]; [13]
  change in vivo at 31.25 µM: -2.7%
[1]; [14]
  change in vivo at 31.25 µM: -1.5%
[1]; [15]
  change in vivo at 125 µM: -11.7%
[1]; [16]
  change in vivo at 125 µM: -10.1%
[1]; [17]
  change in vivo at 500 µM: -24.2%
[1]; [18]
  change in vivo at 500 µM: -19.5%
[1]; [19]
  change in vivo at 500 µM: -25.7%
[1]; [20]
  change in vivo at 31.25 µM: -1.7%
[1]; [21]
  change in vivo at 125 µM: -11.1%
[1]; [22]
  change in vivo at 500 µM: -31.8%
[1]; Table B2, rate 31.25 uM
  % WU 0 DAA AM*: −0.7%
[1]; Table B2, rate 125 uM
  % WU 0 DAA AM*: −10.4%
[1]; Table B2, rate 500 uM
  % WU 0 DAA AM*: −41.2%
other
  melting point: 114 to 124 °C

## CCN1C(=O)CCc2cc(CNS(=O)(=O)c3ccccc3F)ccc21 [Compound 2.007, N-[(1-ethyl-2-oxo-3,4-dihydroquinolin-6-yl)methyl]-2-fluoro-benzenesulfonamide]
[1]; [2]
  change in vivo at 500 µM: -14.1%
[1]; [3]
  change in vivo at 500 µM: -7.3%
[1]; [4]
  change in vivo at 500 µM: -6.6%
[1]; [11]
  change in vivo at 500 µM: -8.8%
[1]; [12]
  change in vivo at 500 µM: -5.7%
[1]; [19]
  change in vivo at 500 µM: -8.1%
other
  melting point: 155 to 163 °C

## CCN1C(=O)CCc2cc(CNS(=O)(=O)c3ccc(F)cc3)ccc21 [Compound 2.009, N-[(1-ethyl-2-oxo-3,4-dihydroquinolin-6-yl)methyl]-4-fluoro-benzenesulfonamide]
[1]; [2]
  change in vivo at 500 µM: -5.3%
[1]; [3]
  change in vivo at 500 µM: -2%
[1]; [4]
  change in vivo at 500 µM: -1.2%
[1]; [11]
  change in vivo at 500 µM: -3.1%
[1]; [12]
  change in vivo at 500 µM: -1%
[1]; [19]
  change in vivo at 500 µM: -2.3%
other
  melting point: 190 to 191 °C

## CCN1C(=O)CCc2cc(CNS(=O)(=O)c3ccc(OC)cc3)ccc21 [Compound 2.010, N-[(1-ethyl-2-oxo-3,4-dihydroquinolin-6-yl)methyl]-4-methoxy-benzenesulfonamide]
[1]; [2]
  change in vivo at 500 µM: -15.2%
[1]; [3]
  change in vivo at 500 µM: -2.6%
[1]; [4]
  change in vivo at 500 µM: -1.7%
[1]; [11]
  change in vivo at 500 µM: -3.6%
[1]; [12]
  change in vivo at 500 µM: -2.4%
[1]; [19]
  change in vivo at 500 µM: -4.3%
other
  melting point: 147 to 150 °C

## CCN1C(=O)CCc2cc(CNS(=O)(=O)c3ccc(C)cc3C)ccc21 [Compound 2.014, N-[(1-ethyl-2-oxo-3,4-dihydroquinolin-6-yl)methyl]-2,4-dimethyl-benzenesulfonamide]
[1]; [2]
  change in vivo at 500 µM: -2.8%
[1]; [3]
  change in vivo at 500 µM: -0.2%
[1]; [4]
  change in vivo at 500 µM: -0.9%
[1]; [11]
  change in vivo at 500 µM: -0.9%
[1]; [12]
  change in vivo at 500 µM: -1.7%
[1]; [19]
  change in vivo at 500 µM: -1.1%
other
  melting point: 199 to 200 °C

## CCCN1C(=O)CCc2cc(CNS(=O)(=O)c3ccccc3)ccc21 [Compound 3.001, N-[(2-oxo-1-propyl-3,4-dihydroquinolin-6-yl)methyl]benzenesulfonamide]
[1]; [2]
  change in vivo at 500 µM: -15%
[1]; [3]
  change in vivo at 500 µM: -9.9%
[1]; [4]
  change in vivo at 500 µM: -6.7%
[1]; [5]
  change in vivo at 31.25 µM: -6.9%
[1]; [6]
  change in vivo at 31.25 µM: -5.4%
[1]; [7]
  change in vivo at 125 µM: -15.7%
[1]; [8]
  change in vivo at 125 µM: -15.3%
[1]; [9]
  change in vivo at 500 µM: -36.4%
[1]; [10]
  change in vivo at 500 µM: -33.3%
[1]; [11]
  change in vivo at 500 µM: -7.2%
[1]; [12]
  change in vivo at 500 µM: -5.8%
[1]; [13]
  change in vivo at 31.25 µM: -5.8%
[1]; [14]
  change in vivo at 31.25 µM: -2.2%
[1]; [15]
  change in vivo at 125 µM: -9.3%
[1]; [16]
  change in vivo at 125 µM: -6.3%
[1]; [17]
  change in vivo at 500 µM: -21.4%
[1]; [18]
  change in vivo at 500 µM: -15.1%
[1]; [19]
  change in vivo at 500 µM: -8.8%
[1]; [20]
  change in vivo at 31.25 µM: -5.7%
[1]; [21]
  change in vivo at 125 µM: -14.8%
[1]; [22]
  change in vivo at 500 µM: -31.1%
[1]; Table B2, rate 31.25 uM
  % WU 0 DAA AM*: −4.4%
[1]; Table B2, rate 125 uM
  % WU 0 DAA AM*: −23.7%
[1]; Table B2, rate 500 uM
  % WU 0 DAA AM*: −44.6%
other
  melting point: 159 to 161 °C

## CCCN1C(=O)CCc2cc(CNS(=O)(=O)c3ccccc3C)ccc21 [Compound 3.011, 2-methyl-N-[(2-oxo-1-propyl-3,4-dihydroquinolin-6-yl)methyl]benzenesulfonamide]
[1]; [2]
  change in vivo at 500 µM: -3.6%
[1]; [3]
  change in vivo at 500 µM: -3.6%
[1]; [4]
  change in vivo at 500 µM: -2.3%
[1]; [11]
  change in vivo at 500 µM: -3.6%
[1]; [12]
  change in vivo at 500 µM: -2.4%
[1]; [19]
  change in vivo at 500 µM: -3%
other
  melting point: 163 to 165 °C

## CCCN1C(=O)CCc2cc(CNS(=O)(=O)c3ccc(C)cc3)ccc21 [Compound 3.012, 4-methyl-N-[(2-oxo-1-propyl-3,4-dihydroquinolin-6-yl)methyl]benzenesulfonamide]
[1]; [2]
  change in vivo at 500 µM: -43.9%
[1]; [3]
  change in vivo at 500 µM: -1.8%
[1]; [4]
  change in vivo at 500 µM: 2.1%
[1]; [11]
  change in vivo at 500 µM: 1.7%
[1]; [12]
  change in vivo at 500 µM: 3%
[1]; [19]
  change in vivo at 500 µM: -5.8%
other
  melting point: 153 to 154 °C

## CCCN1C(=O)CCc2cc(CNS(=O)(=O)c3ccc(OC(C)C)cc3)ccc21 [Compound 3.016, 4-isopropoxy-N-[(2-oxo-1-propyl-3,4-dihydroquinolin-6-yl)methyl]benzenesulfonamide]
[1]; [2]
  change in vivo at 500 µM: -3.6%
[1]; [3]
  change in vivo at 500 µM: -1.3%
[1]; [4]
  change in vivo at 500 µM: -0.5%
[1]; [11]
  change in vivo at 500 µM: -1.1%
[1]; [12]
  change in vivo at 500 µM: 0%
[1]; [19]
  change in vivo at 500 µM: -1.2%
other
  melting point: 138 to 139 °C

## CCCN1C(=O)CCc2cc(CNS(=O)(=O)c3cccs3)ccc21 [Compound 3.072, N-[(2-oxo-1-propyl-3,4-dihydroquinolin-6-yl)methyl]thiophene-2-sulfonamide]
[1]; [2]
  change in vivo at 500 µM: -39.4%
[1]; [3]
  change in vivo at 500 µM: -45.9%
[1]; [4]
  change in vivo at 500 µM: -40.9%
[1]; [11]
  change in vivo at 500 µM: -39.8%
[1]; [12]
  change in vivo at 500 µM: -32.2%
[1]; [19]
  change in vivo at 500 µM: -40.1%
other
  melting point: 151 to 153 °C
